Source: publication doi:10.1101/577908v1, “Host metabolic reprogramming of Pseudomonas aeruginosa by phage-based quorum sensing modulation” (biorxiv, 2019)

Assays:
[1] = target: T1, PA1217 (Pseudomonas aeruginosa, UniProt Q9I4C1); experiment: DTNB end-point assay of CoA release; 1H-NMR; format: biochemical; settings: 1 mM acetyl-CoA, 2 mM 3-methyl-2-oxobutanoic acid, MgCl2, pH 7.5, 37 °C
T1 construct: full-length, GST-tagged (pGEX-6P-1), expressed in E. coli BL21(DE3), GSTrap purified; tag removal not mentioned
T1 sequence (Q9I4C1 1-455): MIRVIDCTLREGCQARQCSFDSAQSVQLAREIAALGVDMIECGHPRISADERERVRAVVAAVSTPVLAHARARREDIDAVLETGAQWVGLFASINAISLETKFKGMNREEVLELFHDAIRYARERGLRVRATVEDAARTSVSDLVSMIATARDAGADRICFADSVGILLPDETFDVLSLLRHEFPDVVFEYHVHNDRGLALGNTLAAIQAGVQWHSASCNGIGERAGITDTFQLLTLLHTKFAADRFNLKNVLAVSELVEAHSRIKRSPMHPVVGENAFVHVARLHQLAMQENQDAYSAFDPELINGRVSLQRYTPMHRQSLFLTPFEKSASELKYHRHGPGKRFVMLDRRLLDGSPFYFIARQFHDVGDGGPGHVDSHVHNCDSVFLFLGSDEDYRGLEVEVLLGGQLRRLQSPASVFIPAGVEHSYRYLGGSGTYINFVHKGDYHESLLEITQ

[2] = target: T2, Qst (Pseudomonas phage LUZ19, UniProt A9J759); experiment: DTNB end-point assay of CoA release; 1H-NMR; format: biochemical; settings: 1 mM acetyl-CoA, 2 mM 3-methyl-2-oxobutanoic acid, MgCl2, pH 7.5, 37 °C
T2 construct: gene gp4; His-tagged (pEXP5-CT/TOPO), expressed in E. coli BL21(DE3), HisTrap purified; predicted 13 kDa
T2 sequence (A9J759 1-122): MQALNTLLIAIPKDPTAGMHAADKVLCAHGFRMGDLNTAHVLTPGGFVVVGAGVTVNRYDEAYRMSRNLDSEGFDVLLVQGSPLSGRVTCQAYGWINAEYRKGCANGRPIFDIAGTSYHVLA

## CC(=O)SCCNC(=O)CCNC(=O)[C@H](O)C(C)(C)COP(=O)(O)OP(=O)(O)OC[C@H]1O[C@@H](n2cnc3c(N)ncnc32)[C@H](O)[C@@H]1OP(=O)(O)O [acetyl-CoA]
[1]
  DTNB end-point assay of CoA release; 1H-NMR: products were only formed by LeuA, while PA1217 merely consumed acetyl-CoA
[2]
  DTNB end-point assay of CoA release; 1H-NMR: Qst was also able to consume acetyl-CoA
